One may read the IC50 as the concentration that gives 50% inhibition.

Molecules are shown by their SMILES.

This test concerns the target Bet BRD4 full length bromo-domain protein (Homo sapiens, UniProt O60885). Kind of test: Bet bromodomain TR-FRET assay (displacement of acetyl histone peptide). Format: binding. The note with it: Bet BRD4 full length bromodomain protein, 300 nM acetyl histone peptide substrate, read-out: IC50. Background: In TR-FRET formats the signal depends on donor and acceptor labels being close together.

With `COc1ccccc1S(=O)(=O)Nc1cc(OCC2COCCN2)c2c(c1)C1(CCC1)C(=O)N2` (centres unmarked) [Compound-203, 2-Methoxy-N-(7′-(morpholin-3-ylmethoxy)-2′-oxospiro[cyclobutane-1,3′-indolin]-5′-yl)benzenesulfonamide], the IC50 is less than 600 nM.

Take `O=C1Nc2c(NCc3ccncc3)cc(NS(=O)(=O)c3ccc(F)cc3F)cc2C12CCC2` [Compound 23, 2,4-Difluoro-N-(2′-oxo-7′-((pyridin-4-ylmethyl)amino)spiro[cyclobutane-1,3′-indolin]-5′-yl)benzenesulfonamide]: the half-inhibitory concentration (IC50) was less than 600 nM.

Turning to `COc1ccccc1S(=O)(=O)Nc1cc(C(C)c2ccccc2)c2c(c1)C1(CCC1)C(=O)N2` (single isomer, unassigned) [Compound 115, 2-Methoxy-N-(2′-oxo-7′-(1-phenylethyl)spiro [cyclobutane-1,3′-indolin]-5′-yl)benzenesulfonamide], the half-inhibitory concentration (IC50) lay within 600 to 1000 nM.

Consider `CN1CCC(NC(=O)c2cc(NC(=O)c3ccc(F)cc3F)cc3c2NC(=O)C32CCC2)CC1` [Compound 75, 5′-(2,4-Difluorobenzamido)-N-(1-methylpiperidin-4-yl)-2′-oxospiro[cyclobutane-1,3′-indoline]-7′-carboxamide], for which the half-maximal inhibitory concentration (IC50) was greater than 1000 nM.

On to `CN1CCc2ccc(-c3cc(NS(=O)(=O)c4ccc(F)cc4F)cc4c3NC(=O)C43CCC3)cc2C1` [Compound 106, 2,4-Difluoro-N-(7′-(2-methyl-1,2,3,4-tetrahydroisoquinolin-7-yl)-2′-oxospiro[cyclobutane-1,3′-indolin]-5′-yl)benzenesulfonamide], for which the IC50 is less than 600 nM.

For the compound `COc1ccccc1S(=O)(=O)Nc1cc(NC2CCN(C)CC2F)c2c(c1)C1(CCC1)C(=O)N2` (centres unmarked) [Compound 78, N-(7′-((3-fluoro-1-methylpiperidin-4-yl)amino)-2′-oxospiro [cyclobutane-1,3′-indolin]-5′-yl)-2-methoxy benzenesulfonamide], the IC50 is less than 600 nM.

With `NC1(COc2cc(NS(=O)(=O)c3ccc(Cl)cc3F)cc3c2NC(=O)C32CCC2)CC1` [compound 207, N-(7′-((1-aminocyclopropyl)methoxy)-2′-oxospiro[cyclobutane-1,3′-indolin]-5′-yl)-4-chloro-2-fluorobenzenesulfonamide], the IC50 was less than 600 nM.

For `COc1ccccc1S(=O)(=O)Nc1cc(OCc2ccc(F)cn2)c2c(c1)C1(CCC1)C(=O)N2` [Compound 148, N-(7′-((5-fluoropyridin-2-yl)methoxy)-2′-oxospiro[cyclobutane-1,3′-indolin]-5′-yl)-2-methoxybenzenesulfonamide], the IC50 is less than 600 nM.

In the case of `O=C(Nc1cc(NS(=O)(=O)c2ccc(F)cc2F)cc2c1NC(=O)C21CCC1)c1cccnc1` [Compound 44, N-(5′-(2,4-Difluorophenylsulfonamido)-2′-oxospiro[cyclobutane-1,3′-indolin]-7′-yl)nicotinamide], the IC50 is greater than 1000 nM.

In the case of `COc1ccccc1S(=O)(=O)Nc1cc(OC2CCN(C3CC3)CC2)c2c(c1)C1(CCC1)C(=O)N2` [Compound 137, N-(7′-((1-cyclopropylpiperidin-4-yl)oxy)-2′-oxospiro[cyclobutane-1,3′-indolin]-5′-yl)-2-methoxybenzenesulfonamide], the half-inhibitory concentration (IC50) was less than 600 nM.

`CN1CCC(NC(=O)c2cc(NS(=O)(=O)C3CCCCC3)cc3c2NC(=O)C32CCC2)CC1` [Compound 83, 5′-(Cyclohexanesulfonamido)-N-(1-methylpiperidin-4-yl)-2′-oxospiro[cyclobutane-1,3′-indoline]-7′-carboxamide]: the half-inhibitory concentration (IC50) lay in the range of 600 to 1000 nM.
